Test systems include SN12C; SK-MEL-2; NCI/ADR-RES; M14; SF-268; SF-539; RXF 393; MDA-MB-435; SK-OV-3; CCRF-CEM; MCF7; SNB-19; HL-60; ACHN; A549; 786-0; NCI-H460; A498; K562; MDA-MB-231.
Holding throughout (assay): NCI anticancer screen, dose series, 48 h

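Five compound concentrations were applied to cells in 96-well plates for 48 hours; endpoints were derived by simple linear interpolation of the resulting dose-response curve. Abbreviation: GI50, concentration required for 50% inhibition of growth.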 Active and inactive are the calls of the source. No stated cut-off is given here; in the data, active = GI50 up to about 1.1 µM and inactive = higher.

As for `CN1C(C(=O)Nc2ccccn2)=C(O)c2ccccc2S1(=O)=O` [PIROXICAM], the GI50 with SN12C, in the assay on SK-MEL-2, in the assay on NCI/ADR-RES, in the assay on M14, in the assay with SF-268 and in the assay with SF-539 was > 100 µM (inactive) throughout. The GI50 with RXF 393, with MDA-MB-435, in the assay on SK-OV-3, in the assay with CCRF-CEM, in the assay on MCF7 and in the assay on SNB-19 was > 100 µM (inactive) each time. In addition, the GI50 in the assay on HL-60, in the assay with ACHN, in the assay with A549 and in the assay on 786-0 was > 100 µM (inactive) each time.

`CCCCc1c2c(nc3c1CCc1cc(C=O)c(N)nc1-3)/C(=C/c1ccccc1)CCC2`: the GI50 in the assay on SN12C was > 100 µM (inactive); with SK-MEL-2 it was > 100 µM (inactive); in the assay on NCI-H460, 40.8 µM (inactive); with M14, > 100 µM (inactive); in the assay with SF-268, > 100 µM (inactive); in the assay on A498, 19.9 µM (inactive). Moreover, the GI50 with SF-539 is > 100 µM (inactive); in the assay on RXF 393, > 100 µM (inactive); in the assay with SK-OV-3, > 100 µM (inactive); in the assay with CCRF-CEM, > 100 µM (inactive); in the assay with SNB-19, > 100 µM (inactive); with HL-60, 63.1 µM (inactive). In addition, the GI50 was > 100 µM (inactive) with ACHN, 19.6 µM (inactive) with A549, > 100 µM (inactive) with 786-0 and > 100 µM (inactive) in the assay with K562.

As for `Cc1ccc(Sc2ccccc2N)cc1`, the GI50 with SN12C was 41.1 µM (inactive); with SK-MEL-2 it was 35.7 µM (inactive); in the assay with NCI-H460, 30.4 µM (inactive); with M14, 32.7 µM (inactive); in the assay with SF-268, 21 µM (inactive); with A498, 30.8 µM (inactive). Besides, the GI50 was 29.5 µM (inactive) in the assay with SF-539; 18.7 µM (inactive) in the assay with RXF 393; > 100 µM (inactive) in the assay on SK-OV-3; 23.2 µM (inactive) in the assay with CCRF-CEM; 38.6 µM (inactive) in the assay on SNB-19; 18.9 µM (inactive) in the assay with HL-60. The GI50 was 37.7 µM (inactive) in the assay on ACHN, 39.3 µM (inactive) with A549, 29.2 µM (inactive) in the assay on 786-0 and 37.4 µM (inactive) in the assay on K562.

`O=C1c2cccc3cc([N+](=O)[O-])cc(c23)C(=O)N1CCNCCNCCNCCN1C(=O)c2cccc3cc([N+](=O)[O-])cc(c23)C1=O`: the GI50 is 0.00251 µM (active) in the assay with SN12C; 0.00995 µM (active) in the assay on SK-MEL-2; < 0.001 µM (active) in the assay with NCI-H460; 0.0188 µM (active) in the assay with M14; 0.00564 µM (active) in the assay with SF-268; 0.0128 µM (active) in the assay on A498. Also, the GI50 with SF-539 was 0.00547 µM (active); with RXF 393 it was 0.122 µM (active); in the assay with SK-OV-3, 0.0212 µM (active); with CCRF-CEM, 0.00122 µM (active); in the assay with SNB-19, < 0.001 µM (active); in the assay with HL-60, 0.01 µM (active). Further, the GI50 was 0.01 µM (active) in the assay with ACHN, < 0.001 µM (active) in the assay with A549, < 0.001 µM (active) in the assay on 786-0 and < 0.001 µM (active) in the assay on K562.

Turning to `O=C(Nc1ccccc1)N1N=C(c2ccccc2)C1c1ccccc1` (centres undefined), the GI50 with SN12C is 48 µM (inactive); in the assay on MDA-MB-231, 62.1 µM (inactive); in the assay with NCI/ADR-RES it was 26.4 µM (inactive); in the assay on NCI-H460, 42.3 µM (inactive); in the assay with M14 it was 20 µM (inactive); in the assay with SF-268, 21.1 µM (inactive). Also, the GI50 in the assay on A498 was 18.5 µM (inactive); in the assay with SF-539, 14.9 µM (inactive); in the assay on RXF 393, 17.3 µM (inactive); in the assay on SK-OV-3 it was 90.8 µM (inactive); in the assay with MCF7, 20.2 µM (inactive); in the assay on SNB-19, 27.7 µM (inactive). For the same compound, the GI50 in the assay on HL-60 was 21.9 µM (inactive); in the assay on ACHN it was 22 µM (inactive); with A549, 25.3 µM (inactive); in the assay on 786-0, 16.4 µM (inactive).

As for `N#CC(C(=O)C(=O)Nc1c(Cl)cccc1Cl)c1ccccc1` (centres undefined), the GI50 with SN12C, in the assay on SK-MEL-2, with NCI-H460, in the assay on M14, in the assay with SF-268 and with A498 was > 10 µM (inactive) each time. Moreover, the GI50 in the assay on SF-539, in the assay with RXF 393, with SK-OV-3, with CCRF-CEM, in the assay with SNB-19 and in the assay with HL-60 was > 10 µM (inactive) throughout. Also, the GI50 with ACHN, in the assay with A549, with 786-0 and in the assay on K562 was > 10 µM (inactive) each time.

With `CCOC(=O)NC/C=C/CO`, the GI50 in the assay with SN12C, in the assay with SK-MEL-2, in the assay with NCI-H460, in the assay on M14, in the assay on SF-268 and in the assay on A498 was > 100 µM (inactive) each time. Moreover, the GI50 in the assay with SF-539, in the assay on RXF 393, with SK-OV-3, in the assay on CCRF-CEM, in the assay with SNB-19 and in the assay with HL-60 was > 100 µM (inactive) throughout. For the same compound, the GI50 in the assay with ACHN, in the assay on A549, with 786-0 and in the assay with K562 was > 100 µM (inactive) in each case.

Regarding `CCC12C=CCN3CCC4(C(=C(C(=O)OC)[C@@H]1O)Nc1ccccc14)C32` (some centres undefined), the GI50 is 2.3 µM (inactive) with SN12C; 1.9 µM (inactive) with SK-MEL-2; 1.87 µM (inactive) with NCI-H460; 2.2 µM (inactive) in the assay with M14; 2.29 µM (inactive) in the assay on SF-268; 1.96 µM (inactive) in the assay with A498. Moreover, the GI50 was 2.07 µM (inactive) in the assay on SF-539; 1.36 µM (inactive) in the assay on RXF 393; 2.43 µM (inactive) with SK-OV-3; 1.76 µM (inactive) in the assay on CCRF-CEM; 1.91 µM (inactive) in the assay with SNB-19; 2 µM (inactive) in the assay on HL-60. For the same compound, the GI50 was 1.56 µM (inactive) in the assay on ACHN, 2.09 µM (inactive) in the assay with A549, 1.64 µM (inactive) in the assay on 786-0 and 2.03 µM (inactive) in the assay with K562.

As for `CCOC(=O)c1cc(-c2ccc(OC)cc2)c([N+](=O)[O-])n1C`, the GI50 with SN12C, with SK-MEL-2, with NCI/ADR-RES, in the assay with NCI-H460, in the assay on M14 and with SF-268 was > 10 µM (inactive) in each case. Further, the GI50 is > 10 µM (inactive) with SF-539; 2.13 µM (inactive) in the assay on RXF 393; > 10 µM (inactive) in the assay on MDA-MB-435; > 10 µM (inactive) in the assay on CCRF-CEM; > 10 µM (inactive) with SNB-19; > 10 µM (inactive) in the assay on HL-60. Further, the GI50 in the assay with ACHN is > 10 µM (inactive); in the assay with A549 it was > 10 µM (inactive); with 786-0 it was > 10 µM (inactive); in the assay with K562 it was 6.84 µM (inactive).

As to `Cc1c(Cl)cccc1NC(=O)C(=O)c1c(O)c2ccc(O)cc2oc1=O`, the GI50 in the assay with SN12C, in the assay with SK-MEL-2, in the assay on NCI-H460, with M14, in the assay with SF-268 and in the assay with A498 was > 100 µM (inactive) throughout. The GI50 with SF-539, with RXF 393, with SK-OV-3, with CCRF-CEM, in the assay on SNB-19 and with HL-60 was > 100 µM (inactive) in each case. In addition, the GI50 in the assay with ACHN, in the assay on A549, in the assay on 786-0 and with K562 was > 100 µM (inactive) throughout.

On to `CC(=O)OCSc1ncnc2c1ncn2CN1CCOCC1`, for which the GI50 with SN12C is 60.1 µM (inactive); in the assay with SK-MEL-2 it was > 100 µM (inactive); in the assay with NCI-H460 it was 18.2 µM (inactive); with M14 it was 2.25 µM (inactive); in the assay with SF-268, 31.3 µM (inactive); in the assay with A498, > 100 µM (inactive). Besides, the GI50 is 6.82 µM (inactive) in the assay on SF-539; 14.8 µM (inactive) in the assay on RXF 393; 2.01 µM (inactive) in the assay on SK-OV-3; 1.98 µM (inactive) with CCRF-CEM; > 100 µM (inactive) in the assay with SNB-19; 6.22 µM (inactive) in the assay on HL-60. Moreover, the GI50 is 33 µM (inactive) with ACHN, 44.6 µM (inactive) in the assay on A549, 7.91 µM (inactive) in the assay with 786-0 and 0.841 µM (active) in the assay on K562.

`Cc1ccc(-n2cc(-c3ccc(Cl)cc3)c3c(NN)ncnc32)cc1`: the GI50 in the assay on SN12C is 2.84 µM (inactive); in the assay with MDA-MB-231, 6.89 µM (inactive); with SK-MEL-2, 15.1 µM (inactive); in the assay on NCI/ADR-RES it was 3.64 µM (inactive); in the assay on NCI-H460 it was 3.4 µM (inactive); in the assay on M14, 1.38 µM (inactive). In addition, the GI50 with SF-268 is 2.64 µM (inactive); in the assay with SF-539 it was 2.51 µM (inactive); in the assay on RXF 393, 2.75 µM (inactive); with MDA-MB-435, 4.65 µM (inactive); in the assay on SK-OV-3, 5.14 µM (inactive); in the assay on CCRF-CEM it was 0.566 µM (active). The GI50 with SNB-19 is 2.93 µM (inactive); in the assay with HL-60, 2.1 µM (inactive); with ACHN it was 3.31 µM (inactive); in the assay with A549 it was 3.26 µM (inactive); in the assay on 786-0 it was 2.55 µM (inactive); with K562, 2.88 µM (inactive).

The values above are taken from ChEMBL document CHEMBL1201862, “PubChem BioAssay data set” (2004).
